Data reported in ChEMBL document CHEMBL1799959, “Cyathane diterpenes from Chinese mushroom Sarcodon scabrosus and their neurite outgrowth-promoting activity” (2011).
Activity calls are given as the source filed them. The calls are words filed in the database; no cut-off is given here.

Experiments:
PC-12 [1] = experiment: Neuritogenic activity in rat PC12 cells in serum free medium assessed as neurite outgrowth at 25 uM after 24 hrs by light microscopy; format: functional, cell-based
PC-12 [2] = experiment: Neuritogenic activity in rat PC12 cells in serum free medium assessed as potentiation of NGF-induced neurite outgrowth at 25 uM after 24 hrs by light microscopy in presence of 20 ng/ml NGF; format: functional
PC-12 [3] = experiment: Neuritogenic activity in rat PC12 cells in serum free medium assessed as potentiation of NGF-induced neurite outgrowth at 25 uM after 24 hrs by light microscopy in presence of 20 ng/ml NGF relative to NGF; format: functional, cell-based

Compound | Activity (PC-12 [1]) | Activity (PC-12 [2]) | Activity (PC-12 [3])
C[C@@H](CO)C1=C2[C@H]3C[C@H](O)C(COC(=O)c4ccccc4)=C[C@H](O)[C@]3(C)CC[C@@]2(CO)CC1 | inactive | inactive | 
C[C@H](CO)C1=C2C3=CC=C(C=O)C[C@H](O)[C@]3(C)CC[C@@]2(C)CC1 [SARCODONIN A] | inactive | 20% | Active
C[C@@H](CO)C1=C2[C@H]3C[C@H](O)C(COC(=O)c4ccccc4)=C[C@H](O)[C@]3(C)CC[C@@]2(C)CC1 | inactive | inactive | 
C[C@@H](CO)C1=C2[C@H]3CC=C(C=O)CC(=O)[C@]3(C)CC[C@@]2(CO)CC1 | inactive | inactive | 
C[C@H](CO)C1=C2[C@H]3CC=C(C=O)CC(=O)[C@]3(C)CC[C@@]2(C)CC1 [SARCODONIN G] | inactive | 24.9% | Active
CC(C)C1=C2[C@H]3C[C@@H](OC(=O)c4ccccc4)C(COC(=O)c4ccccc4)=C[C@H](O)[C@]3(C)CC[C@@]2(C(=O)O)CC1 | inactive | inactive | 
CC(=O)OC[C@@H](C)C1=C2[C@H]3CC=C(C=O)CC(=O)[C@]3(C)CC[C@@]2(C)CC1 | inactive | inactive | 
